The test system of data set [1] is Human HCT-8 Ileocecal Xenograft. Nature of the data set: Antitumor activity by I.V. push, daily × 5, against human HCT-8 ileocecal xenograft. From the text:
[M. G. Nair and Ann Abraham, U.S. Pat. No. 4,996,207 (1991); M. G. Nair, U.S. Pat. No. 5,073,554 (1991 )]. […] [Ann Abraham, M. G. Nair, et al. Advanced in Exp. Med. and Biol. 663-666 (1993)].
MIR: Maximum inhibitory rate. TD: Tumor doubling time.
CR: Complete Regression. PR Partial Regression.
(§1) MWL: Maximum Weight Loss.
A general note: Xenograft models place foreign cells or tissue in a host animal.

For data set [2] the test system is unchanged. Nature of the data set: Antitumor activity by continuous i.v. infusion (C.I.) × 5d against human HCT-8 ileocecal xenograft. Format: in vivo, human (xenograft in nude mice). The settings on record: for CR: Complete Regression / MIR: Maximum inhibitory rate / PR: Partial Regression / TD: Tumor doubling time: C.I. × 5d.
Excerpt: (§2) Antitumor Activity of MDAM by C.I. × 5d
(§3) against HUMAN HCT-8 Ileocecal Xenograft
(§4) MIR: Maximum inhibitory rate.
(§5) TD: Tumor doubling time.
(§6) CR: Complete Regression.
(§7) PR: Partial Regression.
as §1

Experiment in data set [3]: as above
Format: in vivo, human (xenograft in nude mice). Conditions: mouse, in vivo, iv; 0.25 mg/kg, C.I. × 5d; read-out: death.
Excerpt: as §2, §3, §4, §5, §6, §7, §1

As for `CN(Cc1cnc2nc(N)nc(N)c2n1)c1ccc(C(=O)N[C@@H](CCC(=O)O)C(=O)O)cc1` [MTX, methotrexate, reference compound], in data set [1] (1 mg/kg, i.v. push daily × 5), the “CR: Complete Regression” value was 0%, the “MIR: Maximum inhibitory rate” value came to 29.8 ± 8.6%, the “MWL: Maximum Weight Loss” value worked out at 14.0 ± 3.0% and the “PR: Partial Regression” value turned out to be 0%. The “TD: Tumor doubling time” value in data set [1] (1 mg/kg, i.v. push daily × 5) turned out to be 4.6 ± 0.6 days. Moreover, the measurable antitumor activity entry in data set [1] (iv push, HCT-8 xenograft) is given as “did not exhibit any measurable antitumor activity”. Moreover, in data set [2] (0.1 mg/kg), the “CR: Complete Regression” value worked out at 0%, the “MIR: Maximum inhibitory rate” value is given as 50.6 ± 9.6%, the “PR: Partial Regression” value came to 0% and the “TD: Tumor doubling time” value stood at 4.8 ± 0.4 days. For the same molecule, in data set [2] (0.2 mg/kg), the “CR: Complete Regression” value is 0%, the “MIR: Maximum inhibitory rate” value stood at 52.8 ± 8.5%, the “PR: Partial Regression” value is on record as 0% and the “TD: Tumor doubling time” value was determined as 5 ± 0.5 days. Moreover, in data set [2] (0.25 mg/kg), the “CR: Complete Regression” value came to 0% and the “PR: Partial Regression” value stood at 0%. Moreover, the measurable antitumor activity result in data set [2] (continuous 5 day iv infusion, HCT-8 xenograft) is given as “did not exhibit any measurable antitumor activity”. The mortality in data set [3] was determined as 100%.
